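Compound exposure: 48 hours, 5 concentrations, 96-well plates. TGI: total growth inhibition.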 *1 amine or outer side, *2 acyl side, *3 side chain or, on linkers, in order; H or OH if unused. Where a SMILES comes first, the peptide text is derived from it. [ ]: non-standard residue; d: D form. The star is where a group is joined. ξ: configuration not given here. X27 = O=C([C@H]1CCC[C@H]1N[*:1])[*:2]; ξW = NC(Cc1c[nH]c2ccccc12)C(=O)O; ξF = NC(Cc1ccccc1)C(=O)O; Boc = CC(C)(C)OC(=O)*; ξK = NCCCCC(N)C(=O)O; ξT = CC(O)C(N)C(=O)O; tBu = CC(C)(C)*
Experiments:
Assay in all cases: NCI-60 cell line screen, 48 h
[1] = test system: CCRF-CEM leukemia
[2] = test system: PC-3 prostate
[3] = test system: A549 NSCLC
[4] = test system: IGROV1 ovarian
[5] = test system: KM12 colon
[6] = test system: SN12C renal
[7] = test system: U251 CNS
[8] = test system: OVCAR-5 ovarian
[9] = test system: UACC-62 melanoma
[10] = test system: NCI-H522 lung
[11] = test system: MOLT-4 leukemia
[12] = test system: MDA-MB-435
[13] = test system: HCT-116 colon
[14] = test system: 786-0 renal
[15] = test system: HL-60(TB) leukemia
[16] = test system: SK-MEL-2 melanoma
[17] = test system: UO-31 renal
[18] = test system: OVCAR-8 ovarian
[19] = test system: HS 578T breast
[20] = test system: MCF7 breast
[21] = test system: RXF 393 renal
[22] = test system: SW-620 colon
[23] = test system: SK-MEL-28 melanoma
[24] = test system: UACC-257 melanoma
[25] = test system: ACHN renal
[26] = test system: SK-OV-3 ovarian
[27] = test system: EKVX NSCLC
[28] = test system: DU-145 prostate
[29] = test system: MDA-MB-231 breast
[30] = test system: MDA-N
[31] = test system: HCC-2998 colon
[32] = test system: LOX IMVI melanoma
[33] = test system: HT29 colon
[34] = test system: SF-268 CNS
[35] = test system: OVCAR-4 ovarian
[36] = test system: NCI-H460 lung
[37] = test system: COLO 205 colon
[38] = test system: SK-MEL-5 melanoma
[39] = test system: NCI-H226 lung
[40] = test system: CAKI-1 renal
[41] = test system: HOP-62 NSCLC
[42] = test system: SF-295 CNS
[43] = test system: M14 melanoma
[44] = test system: SF-539 CNS
[45] = test system: BT-549 breast
[46] = test system: NCI/ADR-RES ovarian
[47] = test system: SNB-75 CNS
[48] = test system: OVCAR-3 ovarian
[49] = test system: TK-10 renal
[50] = test system: SNB-19 CNS
[51] = test system: HOP-92 NSCLC
[52] = test system: HCT-15 colon
[53] = test system: NCI-H23 lung
[54] = test system: SR leukemia
[55] = test system: MALME-3M melanoma
[56] = test system: RPMI-8226 leukemia
[57] = test system: K-562 leukemia
[58] = test system: T-47D breast

CC1(C)CC(=O)C(/C=N/C(N)=S)=C(O)C1
TGI [1]: > 100 µM | TGI [2]: > 100 µM | TGI [3]: > 100 µM | TGI [4]: > 100 µM | TGI [5]: > 100 µM | TGI [6]: > 100 µM | TGI [7]: > 100 µM | TGI [8]: > 100 µM | TGI [9]: > 100 µM | TGI [10]: > 100 µM | TGI [11]: > 100 µM | TGI [12]: > 100 µM | TGI [13]: > 100 µM | TGI [14]: > 100 µM | TGI [15]: > 100 µM | TGI [16]: > 100 µM | TGI [17]: > 100 µM | TGI [18]: > 100 µM | TGI [19]: > 100 µM | TGI [20]: > 100 µM | TGI [21]: > 100 µM | TGI [22]: > 100 µM | TGI [23]: > 100 µM | TGI [24]: > 100 µM | TGI [25]: > 100 µM | TGI [26]: > 100 µM | TGI [27]: > 100 µM | TGI [28]: > 100 µM | TGI [29]: > 100 µM | TGI [30]: > 100 µM | TGI [31]: > 100 µM | TGI [32]: > 100 µM | TGI [33]: > 100 µM | TGI [34]: > 100 µM | TGI [35]: > 100 µM | TGI [36]: > 100 µM | TGI [37]: > 100 µM | TGI [38]: > 100 µM | TGI [39]: > 100 µM | TGI [40]: > 100 µM | TGI [41]: > 100 µM | TGI [42]: > 100 µM | TGI [43]: > 100 µM | TGI [44]: > 100 µM | TGI [45]: > 100 µM | TGI [46]: > 100 µM | TGI [47]: > 100 µM | TGI [48]: > 100 µM | TGI [49]: > 100 µM | TGI [50]: > 100 µM | TGI [51]: > 100 µM | TGI [52]: > 100 µM | TGI [53]: > 100 µM

CC(OC(C)(C)C)C1NC(=O)C(CCCCNC(=O)OC(C)(C)C)NC(=O)C(Cc2c[nH]c3ccccc23)NC(=O)C(Cc2ccccc2)NC(=O)[C@H]2CCC[C@H]2NC(=O)C(Cc2ccccc2)NC1=O (some centres not stated) (cyclo([X27][ξF][ξW][ξK](Boc)[ξT](tBu)[ξF]))
TGI [1]: > 100 µM | TGI [2]: > 100 µM | TGI [3]: > 100 µM | TGI [4]: > 100 µM | TGI [5]: > 100 µM | TGI [6]: 88.6 µM | TGI [7]: > 100 µM | TGI [8]: 59.8 µM | TGI [9]: > 100 µM | TGI [10]: > 100 µM | TGI [11]: > 100 µM | TGI [12]: > 100 µM | TGI [13]: > 100 µM | TGI [54]: > 100 µM | TGI [14]: > 100 µM | TGI [15]: > 100 µM | TGI [16]: 62.8 µM | TGI [17]: > 100 µM | TGI [18]: > 100 µM | TGI [19]: 28.4 µM | TGI [20]: > 100 µM | TGI [21]: > 100 µM | TGI [22]: > 100 µM | TGI [23]: > 100 µM | TGI [24]: 33.5 µM | TGI [25]: > 100 µM | TGI [26]: > 100 µM | TGI [27]: > 100 µM | TGI [28]: > 100 µM | TGI [29]: > 100 µM | TGI [30]: > 100 µM | TGI [31]: > 100 µM | TGI [32]: > 100 µM | TGI [33]: > 100 µM | TGI [34]: > 100 µM | TGI [55]: > 100 µM | TGI [56]: > 100 µM | TGI [35]: > 100 µM | TGI [36]: > 100 µM | TGI [37]: > 100 µM | TGI [38]: 16.1 µM | TGI [39]: > 100 µM | TGI [40]: > 100 µM | TGI [41]: > 100 µM | TGI [42]: 73.7 µM | TGI [43]: > 100 µM | TGI [44]: > 100 µM | TGI [46]: > 100 µM | TGI [47]: > 100 µM | TGI [48]: > 100 µM | TGI [50]: 69.6 µM | TGI [57]: > 100 µM | TGI [58]: > 100 µM | TGI [51]: > 100 µM | TGI [52]: > 100 µM | TGI [53]: > 100 µM

CC(=O)C1C(=O)C(=O)N(c2ccccc2)C1=O (configuration not stated)
TGI [1]: > 100 µM | TGI [2]: > 100 µM | TGI [3]: > 100 µM | TGI [4]: > 100 µM | TGI [5]: > 100 µM | TGI [6]: > 100 µM | TGI [7]: > 100 µM | TGI [8]: > 100 µM | TGI [9]: > 100 µM | TGI [10]: > 100 µM | TGI [11]: > 100 µM | TGI [12]: > 100 µM | TGI [13]: > 100 µM | TGI [14]: > 100 µM | TGI [15]: > 100 µM | TGI [16]: > 100 µM | TGI [17]: > 100 µM | TGI [18]: > 100 µM | TGI [19]: > 100 µM | TGI [20]: > 100 µM | TGI [21]: > 100 µM | TGI [22]: > 100 µM | TGI [23]: > 100 µM | TGI [24]: > 100 µM | TGI [25]: > 100 µM | TGI [26]: > 100 µM | TGI [27]: > 100 µM | TGI [28]: > 100 µM | TGI [29]: > 100 µM | TGI [30]: > 100 µM | TGI [31]: > 100 µM | TGI [32]: > 100 µM | TGI [33]: > 100 µM | TGI [34]: > 100 µM | TGI [35]: > 100 µM | TGI [36]: > 100 µM | TGI [37]: > 100 µM | TGI [38]: > 100 µM | TGI [39]: > 100 µM | TGI [40]: > 100 µM | TGI [41]: > 100 µM | TGI [42]: > 100 µM | TGI [43]: > 100 µM | TGI [44]: > 100 µM | TGI [45]: > 100 µM | TGI [46]: > 100 µM | TGI [47]: > 100 µM | TGI [48]: > 100 µM | TGI [49]: > 100 µM | TGI [50]: > 100 µM | TGI [51]: > 100 µM | TGI [52]: > 100 µM | TGI [53]: > 100 µM
